Test results from patent US9198896B2 (priority 2006, dated 2015).

Experiments:
EAC cells = experiment: Tumor growth inhibition study; details: individually, at the concentrations mentioned in Table 7
Method: Tumor growth inhibition study: For this study, the total number of EAC cells was counted. The ascites fluid containing cells were quantitatively removed from peritoneal cavity of two mice for a particular drug combination. The cavity was further washed twice with a fixed volume of 0.9% NaCl. The washing and the ascites fluid containing the cells were pooled and centrifuged at 2000×g for 5 min. The packed cell volumes were noted. A fixed amount of aliquot from the packed cells was appropriately diluted, and the number of cells was counted in a hemocytometer. Averages (X^−±SEM) were made of these two parameters, and percentage inhibitions [(1−T/C)×100] were calculated for each dose of different test combinations.

Ehrlich ascites cells = experiment: Loss of viability of Ehrlich ascites cells on incubation; details: read-out: reduction of viability of Ehrlich ascites cells

Structure (SMILES): O=C1O[C@H]([C@@H](O)CO)C(O)=C1O [ascorbic acid, reference compound]
- effect on EAC cells inoculated mice (EAC cells): no effect

Structure (SMILES): CN(CC(=O)O)C(=N)N [creatine]
- effect on EAC cells inoculated mice (EAC cells): no effect

Structure (SMILES): COc1ccc2[nH]cc(CCNC(C)=O)c2c1 [melatonin]
- cytotoxicity at 200 µM (Ehrlich ascites cells): ~10%
